These results are taken from patent publication US11555031B2, “Compounds and methods for regulating insulin secretion” (The Broad Institute, Inc., priority 2017, dated 2023).

Holding throughout (format): in vitro ADME
The nature of one series: Microsome t1/2, rat. The settings on record: Rat (SD) microsomes. The protocol:
(§1) The pharmacokinetic activity profile of Compound 8 was assessed by various standard in vitro measurements. Measurements were performed on human, mouse (CD-1) and rat (SD) microsomes to determine the t1/2, the plasma protein binding (“PPB”) and the plasma stability (“PS”).

A short description of a further series: Plasma stability, rat. The protocol: Measurements were performed on human, mouse (CD-1) and rat (SD) microsomes to determine the t1/2, the plasma protein binding (“PPB”) and the plasma stability (“PS”).
A short description of the next series: Microsome t1/2, mouse. The settings on record: Mouse (CD-1) microsomes. As to the method: as §1

As to `Cc1cccc(NC(=O)c2ccc(OCc3c(C)noc3C)cc2)c1C` [Compound 8], the half-life (usually the time needed for the level to fall by half in the phase considered) in the series “Microsome t1/2, rat” is 3.62 h; in “Microsome t1/2, mouse” it was 4.6 h. The same compound had a PS in the series “Plasma stability, rat” of 97.5 % remaining.
